Reference: publication PMC6120233, “Importance of Val567 on heme environment and substrate recognition of neuronal nitric oxide synthase” (FEBS Open Bio, 2018)

How the values were obtained:
[1] = molecular target: T1, WT nNOSoxy (oxygenase domain of rat neuronal nitric oxide synthase) (Rattus norvegicus, UniProt P29476, V567Y); assay: biochemical; design: UV-visible perturbation difference spectroscopy; displacement of heme-bound imidazole (0.5 mM), apparent dissociation constant; conditions: read-out: Val567Tyr
T1 construct: gene Nos1; oxygenase domain, aa 1-720 plus 6-histidine tag, plasmid pCWnNOSoxy, E. coli BL21(DE3), HisTrap purification
Description: (§1) The native enzymes (~1–2 μM) were incubated 5 min at 4 °C in 50 mM HEPES buffer pH 7.4 in the presence of 0.5 mM ImH and then equally divided into reference and sample cuvettes. After 2 min at room temperature, increasing concentrations of the studied compounds were added to the sample cuvette and equivalent amounts of buffer were added to the reference cuvette. Apparent dissociation constants (K s,app) were estimated by plotting the difference in absorbance between peak (~395 nm) and valley (~430 nm) as a function of added substrate or substrate analogue concentrations and fitting the data to a hyperbolic one‐site binding model by Origin (OriginLab Corp., Northampton, MA, USA). […] Effective K s values can be deduced from the K s,app and the K s values for ImH, assuming simple competitive binding equilibrium 37.

[2] = molecular target: T2, WT nNOSoxy (oxygenase domain of rat neuronal nitric oxide synthase) (Rattus norvegicus, UniProt P29476, V567T); assay: biochemical; design: UV-visible perturbation difference spectroscopy; displacement of heme-bound imidazole (0.5 mM), apparent dissociation constant; conditions: read-out: Val567Thr
T2 construct: gene Nos1; oxygenase domain, aa 1-720 plus 6-histidine tag, plasmid pCWnNOSoxy, E. coli BL21(DE3), HisTrap purification
Description: as §1

[3] = molecular target: T3, WT nNOSoxy (oxygenase domain of rat neuronal nitric oxide synthase) (Rattus norvegicus, UniProt P29476, V567S); assay: biochemical; design: UV-visible perturbation difference spectroscopy; displacement of heme-bound imidazole (0.5 mM), apparent dissociation constant; conditions: read-out: Val567Ser
T3 construct: gene Nos1; oxygenase domain, aa 1-720 plus 6-histidine tag, plasmid pCWnNOSoxy, E. coli BL21(DE3), HisTrap purification
Description: as §1

[4] = molecular target: T4, WT nNOSoxy (oxygenase domain of rat neuronal nitric oxide synthase) (Rattus norvegicus, UniProt P29476, V567R); assay: biochemical; design: UV-visible perturbation difference spectroscopy; displacement of heme-bound imidazole (0.5 mM), apparent dissociation constant; conditions: read-out: Val567Arg
T4 construct: gene Nos1; oxygenase domain, aa 1-720 plus 6-histidine tag, plasmid pCWnNOSoxy, E. coli BL21(DE3), HisTrap purification
Description: as §1

[5] = molecular target: T5, WT nNOSoxy (oxygenase domain of rat neuronal nitric oxide synthase) (Rattus norvegicus, UniProt P29476, V567F); assay: biochemical; design: UV-visible perturbation difference spectroscopy; displacement of heme-bound imidazole (0.5 mM), apparent dissociation constant; conditions: read-out: Val567Phe
T5 construct: gene Nos1; oxygenase domain, aa 1-720 plus 6-histidine tag, plasmid pCWnNOSoxy, E. coli BL21(DE3), HisTrap purification
Description: as §1

[6] = molecular target: T2, WT nNOSoxy (oxygenase domain of rat neuronal nitric oxide synthase); assay: UV-visible difference spectroscopy, heme-Fe(III)-imidazole complex formation; type: binding; conditions: read-out: Val567Thr
[7] = molecular target: T1, WT nNOSoxy (oxygenase domain of rat neuronal nitric oxide synthase); assay: as above; type: binding; conditions: read-out: Val567Tyr
Description: (§2) UV-visible difference spectroscopy, heme-Fe(III)-imidazole complex formation on WT nNOSoxy (oxygenase domain of rat neuronal nitric oxide synthase)

[8] = molecular target: T6, WT nNOSoxy (oxygenase domain of rat neuronal nitric oxide synthase) (Rattus norvegicus, UniProt P29476); assay: as above; type: binding
T6 construct: gene Nos1; oxygenase domain, aa 1-720 plus 6-histidine tag, plasmid pCWnNOSoxy, E. coli BL21(DE3), HisTrap purification
Description: as §2

[9] = molecular target: T4, WT nNOSoxy (oxygenase domain of rat neuronal nitric oxide synthase); assay: as above; type: binding; conditions: read-out: Val567Arg
Description: as §2

[10] = molecular target: T5, WT nNOSoxy (oxygenase domain of rat neuronal nitric oxide synthase); assay: as above; type: binding; conditions: read-out: Val567Phe
Description: as §2

[11] = molecular target: T3, WT nNOSoxy (oxygenase domain of rat neuronal nitric oxide synthase); assay: as above; type: binding; conditions: read-out: Val567Ser
Description: as §2

T4 sequence (P29476 1-720 V567R): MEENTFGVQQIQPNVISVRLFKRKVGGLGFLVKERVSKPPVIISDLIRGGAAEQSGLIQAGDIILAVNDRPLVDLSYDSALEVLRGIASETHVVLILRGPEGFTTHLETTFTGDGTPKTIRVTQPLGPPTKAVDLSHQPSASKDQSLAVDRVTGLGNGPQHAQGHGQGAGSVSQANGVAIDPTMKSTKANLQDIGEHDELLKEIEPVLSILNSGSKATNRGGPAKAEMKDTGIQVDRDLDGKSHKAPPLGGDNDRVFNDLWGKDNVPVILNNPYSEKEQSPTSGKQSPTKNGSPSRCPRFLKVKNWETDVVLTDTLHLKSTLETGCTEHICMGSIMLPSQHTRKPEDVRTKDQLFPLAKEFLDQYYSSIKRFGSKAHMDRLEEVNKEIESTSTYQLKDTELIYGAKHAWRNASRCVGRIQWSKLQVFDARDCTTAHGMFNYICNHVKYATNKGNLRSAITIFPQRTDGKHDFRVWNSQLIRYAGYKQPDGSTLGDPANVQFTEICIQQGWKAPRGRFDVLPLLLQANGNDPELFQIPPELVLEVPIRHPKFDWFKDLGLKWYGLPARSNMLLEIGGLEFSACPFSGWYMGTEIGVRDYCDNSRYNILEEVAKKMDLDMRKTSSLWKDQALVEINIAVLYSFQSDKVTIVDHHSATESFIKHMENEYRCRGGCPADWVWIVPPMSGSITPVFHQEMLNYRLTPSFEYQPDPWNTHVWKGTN
T5 sequence (P29476 1-720 V567F): as the sequence (P29476 1-720 V567R) above, with R567F counted along it
T1 sequence (P29476 1-720 V567Y): as the sequence (P29476 1-720 V567R) above, with R567Y counted along it
T3 sequence (P29476 1-720 V567S): as the sequence (P29476 1-720 V567R) above, with R567S counted along it
T2 sequence (P29476 1-720 V567T): as the sequence (P29476 1-720 V567R) above, with R567T counted along it
T6 sequence (P29476 1-720): as the sequence (P29476 1-720 V567R) above, with R567V counted along it

Row | SMILES | Kd [1] [µM] | Kd [2] [µM] | Kd [3] [µM] | further results
1 | CCCNC(=N)N [compound 5, n-Propyl-guanidine] | 295 ± 16 | 267 ± 63 | 122 ± 8 | –
2 | CCCCNC(=N)N [compound 6, n-Butyl-guanidine] | – | 23 ± 5.6 | 322 ± 31 | –
3 | N=C(N)NC1CC1 [compound 8, Cyclopropyl-guanidine] | 24.3 ± 1.4 | 20.2 ± 3.9 | 21.6 ± 3.9 | Kd [4]: 237 ± 85 µM
4 | CC(C)NC(=N)N [compound 9, Isopropyl-guanidine] | 147 ± 43 | 99 ± 19 | 34.2 ± 4.2 | Kd [4]: > 500 µM; Kd [5]: 293 ± 34 µM
5 | N=C(N)Nc1ccc(F)cc1 [compound 11, 4-fluorophenyl-guanidine] | – | – | 2.2 ± 0.4 | Kd [5]: 165 ± 87 µM
6 | COc1ccc(NC(=N)N)cc1 [compound 12, 4-methoxyphenyl-guanidine] | – | 189 ± 63 | 7.8 ± 1.2 | –
7 | c1c[nH]cn1 [imidazole] | – | – | – | Kd [6]: 93 ± 24.7 µM; Kd [7]: 11.1 ± 3 µM; Kd [8]: 76.3 ± 5.4 µM; Kd [9]: 262 ± 77 µM; Kd [10]: 152 ± 26 µM; Kd [11]: 140 ± 16 µM
